Measured values taken from ChEMBL document CHEMBL4706683 (J Med Chem, 2021).
The source made the active and inactive calls. No cut-off for these calls is given here.

Columns and labels:
Plasmodium falciparum [1] = test: Antiplasmodial activity against synchronized ring stage Plasmodium falciparum 3D7 infected in human erythrocytes assessed as reduction in parasite growth incubated for 72 hrs by Giemsa staining based light microscopic method; type: functional, organism-based; conditions: 3D7, Erythrocyte
Plasmodium falciparum [2] = test: Antiplasmodial activity against synchronized ring stage Plasmodium falciparum Dd2 infected in human erythrocytes assessed as reduction in parasite growth incubated for 72 hrs by Giemsa staining based light microscopic method; type: functional, organism-based; conditions: Dd2, Erythrocyte
HepG2 = test: Cytotoxicity against human HepG2 cells assessed as reduction in cell viability incubated for 72 hrs by cell titer glo assay; type: cell-based; conditions: HepG2, 72 h
HEK-293T = test: Cytotoxicity against human HEK293T cells assessed as reduction in cell viability incubated for 72 hrs by cell titer glo assay; type: cell-based
[3] = Selectivity index, ratio of IC50 for cytotoxicity against human HepG2 cells assessed to IC50 for antiplasmodial activity against synchronized ring stage Plasmodium falciparum 3D7 infected in human erythrocytes; type: toxicity, cell-based; conditions: read-out: Ratio IC50
Plasmodium falciparum [4] = test: Antiplasmodial activity against Plasmodium falciparum GB4 infected in human erythrocytes assessed as reduction in parasite growth incubated for 72 hrs by Giemsa staining based light microscopic method; type: functional, organism-based; conditions: GB4, Erythrocyte
Plasmodium falciparum [5] = test: Antiplasmodial activity against Plasmodium falciparum CP286 infected in human erythrocytes assessed as reduction in parasite growth incubated for 72 hrs by Giemsa staining based light microscopic method; type: functional, organism-based; conditions: CP286, Erythrocyte
Plasmodium falciparum [6] = test: Antiplasmodial activity against artemisinin-resistant Plasmodium falciparum 6218 infected in human erythrocytes assessed as reduction in parasite growth incubated for 72 hrs by Giemsa staining based light microscopic method; type: functional, organism-based; conditions: Plasmodium falciparum, 6218, Erythrocyte
[7] = Clearance in mouse liver microsomes incubated upto 45 mins in presence of NADPH by LC-MS/MS analysis; type: ADME, Microsome; conditions: read-out: CLH
[8] = Toxicity in Balb/c mouse infected with blood stage Plasmodium yoelii assessed as animal death at 10 to 30 mg/kg, ip QD for 5 consecutive days and measured on day 6; type: organism-based; conditions: in vivo, 120 h, dose 10-30 mg/kg, time 5 day
Plasmodium yoelii [9] = test: Antiplasmodial activity against blood stage Plasmodium yoelii infected in Balb/c mouse assessed as reduction in parasitemia at 10 to 30 mg/kg, ip QD for 5 consecutive days and measured on day 20 by microscopic analysis; type: functional, organism-based; conditions: dose 10-30 mg/kg, time 5.0 day
Plasmodium yoelii [10] = test: Antiplasmodial activity against blood stage Plasmodium yoelii infected in Balb/c mouse assessed as reduction in parasitemia at 60 mg/kg, ip QD for 5 consecutive days and measured on day 30 by microscopic analysis; type: functional, organism-based; conditions: time 5.0 day
Plasmodium berghei = test: Antiplasmodial activity against liver stage Plasmodium berghei infected in Balb/c mouse assessed as reduction in parasitemia at 30 mg/kg, ip administered as single dose and measured upto 96 hrs by microscopic analysis; type: functional, organism-based; conditions: time hrs <=96
Plasmodium falciparum [11] = test: Antiplasmodial activity against schizont stage Plasmodium falciparum 3D7 infected in human erythrocytes assessed as reduction in parasitemia at 10 times IC50 incubated for 12 hrs followed by compound washout and measured at 96 hrs post infection by […] analysis; type: functional, organism-based; conditions: Erythrocyte
Plasmodium falciparum [12] = test: Antimalarial activity against synchronized schizont stage transgenic Plasmodium falciparum 3D7 with C-terminal glmS-fused HDAC1 knockdown assessed as parasite growth inhibition pretreated with glucosamine followed by compound treatment and incubated for 4 hrs followed by compound washout for thrice and subsequent culturing for 68 hrs by SYBR Green 1 staining based analysis; type: functional, organism-based
Plasmodium falciparum [13] = test: Antimalarial activity against synchronized schizont stage transgenic Plasmodium falciparum 3D7 with C-terminal glmS-fused HDAC2 knockdown assessed as parasite growth inhibition pretreated with glucosamine followed by compound treatment and incubated for 4 hrs followed by compound washout for thrice and subsequent culturing for 68 hrs by SYBR Green 1 staining based analysis; type: functional, organism-based
Histone deacetylase 1 = Histone deacetylase 1 (Homo sapiens, UniProt Q13547); type: ADME, cell-based, Sf9
[14] = biological target: T1, NAD-dependent protein deacetylase sirtuin-2 (Homo sapiens, UniProt Q8IXJ6); test: Inhibition of human C-terminal His-tagged SIRT2 (50 to 356 residues) expressed in Escherichia coli using Ac-peptide as substrate preincubated for 15 mins followed by substrate addition and incubated for 240 mins followed by trypsin addition and further incubated for 120 mins
T1 sequence (Q8IXJ6 whole entry): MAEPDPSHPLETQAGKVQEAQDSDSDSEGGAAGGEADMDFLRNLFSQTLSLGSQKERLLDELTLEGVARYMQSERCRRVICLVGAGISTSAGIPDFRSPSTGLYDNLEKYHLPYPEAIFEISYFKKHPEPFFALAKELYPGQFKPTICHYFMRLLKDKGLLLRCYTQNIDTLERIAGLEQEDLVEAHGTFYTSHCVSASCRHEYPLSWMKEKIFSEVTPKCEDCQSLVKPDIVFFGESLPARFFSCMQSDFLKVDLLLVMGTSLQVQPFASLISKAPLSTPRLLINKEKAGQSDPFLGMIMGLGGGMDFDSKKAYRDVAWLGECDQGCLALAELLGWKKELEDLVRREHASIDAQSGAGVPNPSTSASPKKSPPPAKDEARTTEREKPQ

[15] = Tmax in Balb/c mouse at 5 mg/kg, ip administered as single dose measured upto 24 hrs by LC-MS/MS analysis; type: ADME, organism-based; conditions: in vivo
[16] = Cmax in Balb/c mouse at 5 mg/kg, ip administered as single dose measured upto 24 hrs by LC-MS/MS analysis; type: ADME, organism-based; set-up: route intraperitoneal, dose 5 mg/kg, time <=24; conditions: in vivo
[17] = AUC (0 to t) in Balb/c mouse at 5 mg/kg, ip administered as single dose measured upto 24 hrs by LC-MS/MS analysis; type: ADME, organism-based; set-up: route intraperitoneal, dose 5 mg/kg, time <=24; conditions: in vivo
[18] = AUC (0 to t) in Balb/c mouse at 10 mg/kg, po administered as single dose measured upto 24 hrs by LC-MS/MS analysis; type: ADME, organism-based; set-up: route oral, dose 10 mg/kg, time <=24; conditions: in vivo
[19] = AUC (0 to infinity) in Balb/c mouse at 5 mg/kg, ip administered as single dose measured upto 24 hrs by LC-MS/MS analysis; type: ADME, organism-based; set-up: route intraperitoneal, dose 5 mg/kg, time <=24; conditions: in vivo
[20] = Apparent clearance during terminal phase in Balb/c mouse at 2 mg/kg, iv administered as single dose measured upto 24 hrs by LC-MS/MS analysis; type: ADME, organism-based; conditions: in vivo
[21] = Apparent clearance during terminal phase in Balb/c mouse at 5 mg/kg, ip administered as single dose measured upto 24 hrs by LC-MS/MS analysis; type: ADME, organism-based; conditions: in vivo, 5 mg/kg, 24 h
[22] = Apparent volume of distribution during terminal phase in Balb/c mouse at 2 mg/kg, iv administered as single dose measured upto 24 hrs by LC-MS/MS analysis; type: ADME, organism-based; conditions: in vivo
[23] = Apparent volume of distribution during terminal phase in Balb/c mouse at 5 mg/kg, ip administered as single dose measured upto 24 hrs by LC-MS/MS analysis; type: ADME, organism-based; conditions: in vivo, 5 mg/kg, 24 h
[24] = Oral bioavailability in Balb/c mouse at 10 mg/kg administered as single dose measured upto 24 hrs by LC-MS/MS analysis; type: ADME, organism-based; conditions: in vivo
Plasmodium falciparum [25] = test: Antiplasmodial activity against artemisinin-resistant Plasmodium falciparum 6218 assessed as reduction in parasite survival at 700 nM incubated for 6 hrs followed by compound washout thrice and further cultured in compound free medium for 66 hrs by RSA; type: functional, organism-based
Plasmodium falciparum [26] = test: Antiplasmodial activity against artemisinin-resistant Plasmodium falciparum 6320 assessed as reduction in parasite survival at 700 nM incubated for 6 hrs followed by compound washout thrice and further cultured in compound free medium for 66 hrs by RSA; type: functional, organism-based

Histone deacetylase 1, sequence (Q13547 whole entry, the tested form may be a part): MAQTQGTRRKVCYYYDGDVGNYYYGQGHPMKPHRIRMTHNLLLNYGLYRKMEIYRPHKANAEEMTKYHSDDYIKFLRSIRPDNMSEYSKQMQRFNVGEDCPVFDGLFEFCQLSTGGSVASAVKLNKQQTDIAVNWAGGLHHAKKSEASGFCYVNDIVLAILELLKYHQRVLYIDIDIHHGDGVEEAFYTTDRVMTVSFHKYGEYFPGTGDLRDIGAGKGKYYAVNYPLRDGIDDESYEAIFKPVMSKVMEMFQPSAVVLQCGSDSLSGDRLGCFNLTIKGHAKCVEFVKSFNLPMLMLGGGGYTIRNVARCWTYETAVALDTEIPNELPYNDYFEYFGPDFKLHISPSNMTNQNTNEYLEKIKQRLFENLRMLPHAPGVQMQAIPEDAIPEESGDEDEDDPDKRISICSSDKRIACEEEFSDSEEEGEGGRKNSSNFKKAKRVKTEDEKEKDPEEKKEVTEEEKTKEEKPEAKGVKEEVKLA

For Cl.O=C(NO)c1cnc(N2CCC3(CCN(Cc4c[nH]c5ccccc45)C3)CC2)nc1, the IC50 (Plasmodium falciparum [1]) was 3.19 nM, the IC50 (Plasmodium falciparum [2]) was 1.9 nM and the IC50 (HepG2) was 264 nM. For the same compound, the IC50 (HEK-293T) was 241 nM, the selectivity ratio [3] was 83 and the IC50 (Plasmodium falciparum [4]) was 3.9 nM. For the same compound, the IC50 (Plasmodium falciparum [5]) was 4.26 nM, the IC50 (Plasmodium falciparum [6]) was 3 nM and the CLint scaled [7] was 121 mL/min/kg. For the same compound, the Activity [8] was “Non-Toxic”, the Activity (Plasmodium yoelii [9]) was “inactive” and the Activity (Plasmodium yoelii [10]) was “Active”. For the same compound, the Activity (Plasmodium berghei) was “Active”, the Activity (Plasmodium falciparum [11]) was “Active” and the IC50 (Plasmodium falciparum [12]) was 4.3 nM. For the same compound, the IC50 (Plasmodium falciparum [13]) was 69.5 nM, the IC50 (Histone deacetylase 1) was 0.58 nM and the IC50 [14] was greater than 10000 nM. The Tmax [15] was 15 min, the Cmax [16] was 108 ng/mL and the AUC(0-t) at 24 h [17] was 81.9 ng·h/mL. For the same compound, the AUC(0-t) at 24 h [18] was 2.94 ng·h/mL, the AUC(0-inf) [19] was 95.1 ng·h/mL and the CLz/F [20] was 280 mL/min/kg. For the same compound, the CLz/F [21] was 567 mL/min/kg, the Vz/F [22] was 10.3 L/kg and the Vz/F [23] was 60.4 L/kg. For the same compound, the bioavailability [24] was 0.5%, the Activity (Plasmodium falciparum [25]) was “Active” and the Activity (Plasmodium falciparum [26]) was “Active”.
